Experimental data as given in patent US20230303483A1, “USE OF STROBILURIN TYPE COMPOUNDS FOR COMBATING PHYTOPATHOGENIC FUNGI CONTAINING AN AMINO ACID SUBSTITUTION F129L IN THE MITOCHONDRIAL CYTOCHROME B PROTEIN CONFERRING RESISTANCE TO QO […]” (BASF SE, priority 2020, published 2023).

What was measured:
[1] = system: Phakopsora pachyrhizi (strain containing the amino acid substitution F129L in the mitochondrial cytochrome b protein); test: Use example 1: protective control of soybean rust on soybeans (PHAKPA P2), inoculation 2 days after spraying; assay type: in vivo; conditions: % diseased leaf area on soybean, 16 ppm spray, inoculation 2 days after treatment, untreated controls usually >85 %
Protocol: (§1) The compound was dissolved in a mixture of acetone and/or dimethylsulfoxide and the wetting agent/emulsifier Wettol, which is based on ethoxylated alkylphenoles, in a ratio (volume) solvent-emulsifier of 99 to 1 to give a total volume of 5 ml. Subsequently, water was added to total volume of 100 ml. This stock solution was then diluted with the described solvent-emulsifier-water mixture to the final concentration given in the table below.
Use example 1. Protective control of soybean rust on soybeans caused by Phakopsora pachyrhizi (PHAKPA P2)
(§2) Leaves of potted soybean seedlings were sprayed to run-off with the previously described spray solution, containing the concentration of active ingredient or their mixture as described below. The plants were allowed to air-dry. The trial plants were cultivated for 2 days in a greenhouse chamber at 23-27° C. and a relative humidity between 60 and 80 %. Then the plants were inoculated with spores of Phakopsora pachyrhizi. The strain used contains the amino acid substitution F129L in the mitochondrial cytochrome b protein conferring resistance to Qo inhibitors. To ensure the success the artificial inoculation, the plants were transferred to a humid chamber with a relative humidity of about 95 % and 20 to 24° C. for 24 hr. The trial plants were cultivated for up to 14 days in a greenhouse chamber at 23 to 27° C. and a relative humidity between 60 and 80 %. The extent of fungal attack on the leaves was visually assessed as % diseased leaf area, the disease level of untreated controls was usually higher than 85 %.
(§3) All test results below are given for the control of phytopathogenic fungi containing the amino acid substitution F129L in the mitochondrial cytochrome b protein conferring resistance to Qo inhibitors.

[2] = system: Phakopsora pachyrhizi (strain containing the amino acid substitution F129L in the mitochondrial cytochrome b protein); test: Use example 2: protective control of soybean rust on soybeans (PHAKPA P6), inoculation six days after spraying; assay type: in vivo; conditions: % diseased leaf area on soybean, 16 ppm spray, inoculation six days after treatment, untreated controls usually >85 %
Protocol: as §1
Use example 2. Protective control of soybean rust on soybeans caused by Phakopsora pachyrhizi (PHAKPA P6)
as §2, with “active ingredient as described” for “active ingredient or their mixture as described”, “cultivated for six days in” for “cultivated for 2 days in”, “% and 23 to 27°” for “% and 20 to 24°”, “23 to 27° C. for” for “20 to 24° C. for”
as §3

Compound	PHAKPA Disease level (%) P2 at 16 ppm [1]	PHAKPA Disease level (%) P6 at 16 ppm [2]
CO/N=C(/C(=O)OC)c1ccccc1CO/N=C(\C)C#Cc1ccc(OC(F)(F)F)cc1 [Example 12, methyl(2E)-2-methoxyimino-2-[2-[[(E)-[1-methyl-3-[4-(trifluoromethoxy)phenyl]prop-2-ynylidene]amino]oxymethyl]phenyl]acetate]	93%	100%
CO/N=C(/C(=O)OC)c1cccc(C)c1CO/N=C(\C)C#Cc1cccc(Br)c1 [Example 30]	0%	0%
CO/N=C(/C(=O)OC)c1ccccc1CO/N=C(\C)C#Cc1ccccc1Br [Example 46]	47%	37%
CNC(=O)/C(=N/OC)c1ccccc1CO/N=C(\C)C#Cc1ccccc1Br [Example 48]	0%	2%
CNC(=O)/C(=N/OC)c1ccccc1CO/N=C(\C)C#Cc1cccc(Br)c1 [Example 5]	1%	7%
CO/N=C(/C(=O)OC)c1ccccc1CO/N=C(\C)C#Cc1c(Cl)cccc1Cl [Example 93]	87%	97%
CO/N=C(/C(=O)OC)c1cccc(C)c1CO/N=C(\C)C#Cc1ccc(Br)cc1 [Example 56]	18%	37%
CNC(=O)/C(=N/OC)c1ccccc1CO/N=C(\C)C#Cc1ccccc1Cl [Example 76]	3%	4%
CNC(=O)/C(=N/OC)c1ccccc1CO/N=C(\C)C#Cc1ccc(OC2CC2)cc1 [Example 106]	23%	13%
CO/C=C(/C(=O)OC)c1ccccc1CO/N=C(\C)C#Cc1ccc(F)cc1 [Example 114]	0%	0%
CO/N=C(/C(=O)OC)c1ccccc1CO/N=C(\C)C#Cc1cccc(OC(F)(F)F)c1 [Example 52]	13%	33%
CNC(=O)/C(=N/OC)c1ccccc1CO/N=C(\C)C#Cc1ccc(Cl)cc1F [Example 83]	17%	22%
CNC(=O)/C(=N/OC)c1cccc(C)c1CO/N=C(\C)C#Cc1cccc(OC(F)(F)F)c1 [Example 27]	0%	0%
CO/N=C(/C(=O)OC)c1ccccc1CO/N=C(\C)C#Cc1ccc(F)cc1 [Example 7]	30%	50%
CNC(=O)/C(=N/OC)c1ccccc1CO/N=C(\C)C#Cc1ccccc1C [Example 51]	0%	0%
CO/N=C(/C(=O)OC)c1ccccc1CO/N=C(\C)C#Cc1ccc(OC(F)(F)F)cc1C1CC1 [Example 121]	87%	53%
CNC(=O)/C(=N/OC)c1cccc(C)c1CO/N=C(\C)C#Cc1cccc(C(F)(F)F)c1 [Example 40]	0%	0%
CNC(=O)/C(=N/OC)c1cccc(C)c1CO/N=C(\C)C#Cc1ccc(C)cc1 [Example 19]	0%	0.6%
CNC(=O)/C(=N/OC)c1cccc(C)c1CO/N=C(\C)C#Cc1ccccc1C [Example 49]	0%	0%
CO/C=C(/C(=O)OC)c1cccc(C)c1CO/N=C(\C)C#Cc1ccc(F)cc1C(=O)OC [Example 124]	14%	53%
CNC(=O)/C(=N/OC)c1ccccc1CO/N=C(\C)C#Cc1cccc2c1OC(F)(F)O2 [Example 101]	4%	2%
CO/N=C(/C(=O)OC)c1ccccc1CO/N=C(\C)C#Cc1ccc(Cl)cc1F [Example 90]	30%	57%
